Here are results for 5 molecules from ChEMBL document CHEMBL5360649, “Potential Broad-Spectrum Antimicrobial, Wound Healing, and Disinfectant Cationic Peptide Crafted from Snake Venom” (J Med Chem, 2023).

Active and inactive are the calls of the source. The calls are words filed in the database; no cut-off is given here. Bridge positions count the residues as written; N and C are the ends. Square brackets hold non-standard residues; d marks the D form. Peptide text beside a SMILES is read from it. * marks the point of attachment. ξ: configuration not given here. Heptanoyl(6-Me) = CC(C)CCCCC(=O)*; dDab = NCC[C@@H](N)C(=O)O; Orn = NCCC[C@H](N)C(=O)O; Dab = NCC[C@H](N)C(=O)O; ξP = O=C(O)C1CCCN1

For experiment [1], the species on record is Rattus norvegicus. Put plainly: Induction of wound healing in surgically-induced Albino Wistar rat wound model inoculated with methicillin-resistant Staphylococcus aureus assessed as reduction in scarring measured after 11 days by H&E staining based analysis. The experiment is classed as functional. The settings on record: time 11.0 day.
The test system of experiment [2] is Cell membrane. The experiment is described as follows: Induction of cytoplasmic membrane depolarization in Klebsiella pneumoniae assessed as increase in fluorescence intensity at 5 uM by DiSC3-5 dye based fluorescence method. Format: subcellular.
For experiment [3], the system named is Cell membrane. The experiment is described as follows: Induction of outer membrane permeabilization in methicillin-resistant Staphylococcus aureus incubated for 5 to 20 mins by fluorescence based NPN uptake assay. Format: subcellular. The settings on record: time 5-20 min.
Experiment [4] deals with Klebsiella pneumoniae. Put plainly: Induction of resistance development in Klebsiella pneumoniae assessed as fold increase in MIC at 0.5 times of MIC incubated with compound for 12 hrs followed by replacement with fresh medium for 12 hrs and measured after 20 repeated cycles. Format: functional. The conditions noted are these: time 240.0 hrs.
Experiment [5] concerns Pseudomonas aeruginosa. Put plainly: Induction of resistance development in Pseudomonas aeruginosa assessed as fold increase in MIC at 0.5 times of MIC incubated with compound for 12 hrs followed by replacement with fresh medium for 12 hrs and measured after 20 repeated cycles. The experiment is classed as functional, organism-based. The conditions noted are these: time 240.0 hrs.

Experiment [6] concerns Pseudomonas aeruginosa. The experiment is described as follows: Antibacterial activity against patient-derived Pseudomonas aeruginosa assessed as inhibition of bacterial growth at 25 to 100 uM incubated overnight by spotting assay. The experiment is classed as functional, organism-based. The conditions noted are these: dose 25-100 µM.
For experiment [7], the system named is Pseudomonas aeruginosa. Put plainly: Antibacterial activity against patient-derived Pseudomonas aeruginosa assessed as inhibition of bacterial growth incubated for 24 hrs by CLSI protocol based microdilution method. The experiment is classed as functional. A general note: Broth dilution looks for growth in wells or tubes with falling amounts of substance.
For experiment [8], the system named is Klebsiella pneumoniae. Put plainly: Antibacterial activity against Klebsiella pneumoniae ATCC BAA-1705 assessed as inhibition of bacterial growth at 25 to 100 uM incubated overnight by spotting assay. The settings on record: dose 25-100 µM. The experiment is classed as functional, organism-based.
The subject of experiment [9] is Klebsiella pneumoniae. Put plainly: Antibacterial activity against Klebsiella pneumoniae ATCC BAA-1705 assessed as inhibition of bacterial growth incubated for 24 hrs by CLSI protocol based microdilution method. Format: functional.
Experiment [10] relates to Staphylococcus aureus. Put plainly: Antibacterial activity against patient-derived methicillin-resistant Staphylococcus aureus assessed as inhibition of bacterial growth incubated for 24 hrs by CLSI protocol based microdilution method. The experiment is classed as functional.
The subject of experiment [11] is Escherichia coli. Put plainly: Antibacterial activity against Escherichia coli ATCC CRM-11229 assessed as inhibition of bacterial growth incubated for 24 hrs by CLSI protocol based microdilution method. Format: functional.
Experiment [12] concerns Escherichia coli. Put plainly: Antibacterial activity against Escherichia coli ATCC CRM-11229 assessed as inhibition of bacterial growth at 25 to 100 uM incubated overnight by spotting assay. Format: functional, organism-based. The settings on record: dose 25-100 µM.
In experiment [13] the test system is Staphylococcus aureus. The experiment is described as follows: Antibacterial activity against patient-derived methicillin-resistant Staphylococcus aureus assessed as inhibition of bacterial growth at 25 to 100 uM incubated overnight by spotting assay. Format: functional, organism-based. The conditions noted are these: dose 25-100 µM.

For the molecule `C=CN1CCCC1=O.II`, in experiment [1], the outcome was inactive.
`CC(C)C[C@@H]1NC(=O)[C@H](CCCN)NC(=O)[C@H](C(C)C)NC(=O)[C@@H]2CCCN2C(=O)[C@@H](Cc2ccccc2)NC(=O)[C@H](CC(C)C)NC(=O)[C@H](CCCN)NC(=O)[C@H](C(C)C)NC(=O)C2CCCN2C(=O)[C@@H](Cc2ccccc2)NC1=O` (stereo partly drawn) (cyclo(L[dF]PV[Orn]L[dF][ξP]V[Orn])): the outcome in experiment [2] was Active.
Regarding `CC(C)CCCCC(=O)N[C@@H](CCN)C(=O)N[C@H](C(=O)N[C@@H](CCN)C(=O)N[C@H]1CCNC(=O)[C@H]([C@@H](C)O)NC(=O)[C@H](CCN)NC(=O)[C@H](CCN)NC(=O)[C@H](CC(C)C)NC(=O)[C@@H](Cc2ccccc2)NC(=O)[C@@H](CCN)NC1=O)[C@@H](C)O` ({Heptanoyl(6-Me)}-[Dab]T[Dab][Dab][dDab][dF]L[Dab][Dab]T; lactam 4-C), in experiment [3], the result was Active.
Take COLISTIN: the fold change (FC) in [4] was 4; in experiment [5], 2.
On to H-LPIIKWVKKFFWRWR-OH, for which the outcome in [6], in [8], in experiment [12] and in experiment [13] was Active. Also, the MIC (in general, the lowest concentration that inhibits growth of the organism) in experiment [7] was determined as 10 µM; in experiment [9], 16 µM; in experiment [10], 15 µM; in experiment [11] it was 8 µM.
